What was measured:
Ramos cells = experiment: Cytotoxicity (cell death) in Ramos cells; assay type: cell-based
Protocol: (§1) The compounds listed in Table 9 were tested for activity against F1F0-ATPase by measuring ATP synthesis and ATP hydrolysis. In addition, the compounds were assessed for cytotoxicity in Ramos cells Inhibition of ATP synthesis and hydrolysis by the F1F0-ATPase and cytotoxicity in Ramos cells was measured as described in K. M. Johnson et al. Chemistry & Biology 2005, 12, 485-496.

F1F0-ATPase [1] = molecular target: T1, F1F0-ATPase (Bos taurus, UniProt P13621); experiment: Inhibition of ATP synthesis by the F1F0-ATPase; assay type: biochemical; settings: IC40: concentration for 40% inhibition
Protocol: as §1

F1F0-ATPase [2] = molecular target: T1, F1F0-ATPase; experiment: Inhibition of ATP hydrolysis by the F1F0-ATPase; assay type: biochemical; settings: IC40: concentration for 40% inhibition
Protocol: as §1

Compound | EC50 (Ramos cells; Ramos cells) [µM] | ATP Synthesis (IC40 μM) (F1F0-ATPase [1]) [µM] | ATP Hydrolysis (IC40 μM) (F1F0-ATPase [2]) [µM] | EC50 (Ramos cells; Homo sapiens, Ramos) [µM]
N#Cc1cccc(-c2ccc(NC(=NC(=O)c3cccc(Cl)c3)NCCc3c[nH]cn3)cc2)c1 [III-45, (Z/E)-N-((2-(1H-imidazol-4-yl)ethylamino)(3′-cyanobiphenyl-4-ylamino)methylene)-3-chlorobenzamide] | < 10 | <10 | >30 | 
N#Cc1cccc(C(=O)N=C(NCCc2c[nH]cn2)Nc2cccc(-c3ccccc3)c2)c1 [VI-5, (Z/E)-N-((2-(1H-imidazol-4-yl)ethylamino)(biphenyl-3-ylamino)methylene)-3-cyanobenzamide] | > 10 | >10 | >30 | 
(Z/E)-N-((2-(1H-imidazol-5-yl)ethylamino)(4-(methylsulfonyl)phenylamino)methylene)-3-chlorobenzamide [III-36] | > 30 | >20 | >30 | 
Cc1ccc(NC(=NC(=O)c2cccc(Cl)c2)NCCc2c[nH]cn2)cc1 [III-10, (Z/E)-N-((2-(1H-imidazol-4-yl)ethylamino)(p-toluidino)methylene)-3-chlorobenzamide] | > 10 | >10 | >20 | 
Cc1ccccc1C(=O)N=C(NCCc1c[nH]cn1)Nc1ccccc1-c1ccccc1 [Compound I-3, (E/Z)—N-((2-(1H-imidazol-4-yl)ethylamino)(biphenyl-2-ylamino)methylene)-2-methylbenzamide] | > 30 | >20 | >30 | 
O=C(N=C(NCCc1c[nH]cn1)Nc1ccc(-c2ccccc2)cc1)c1ccc(Br)cc1 [II-11, (Z/E)-N-((2-(1H-imidazol-4-yl)ethylamino)(biphenyl-4-ylamino)methylene)-4-bromobenzamide] | > 30 | >10 | >20 | 
N#Cc1cccc(C(=O)N=C(NCCc2c[nH]cn2)Nc2ccc(-c3ccccc3)cc2)c1 [II-6, (Z/E)-N-((2-(1H-imidazol-4-yl)ethylamino)(biphenyl-4-ylamino)methylene)-3-cyanobenzamide] | > 30 | >20 | >30 | 
O=C(N=C(NCCc1c[nH]cn1)Nc1ccc(-c2ccccc2)cc1)c1ccc(Cl)c(Cl)c1 [II-16, (Z/E)-N-((2-(1H-imidazol-4-yl)ethylamino)(biphenyl-4-ylamino)methylene)-3,4-dichlorobenzamide] | < 10 | <10 | <10 | 
N#Cc1ccc(-c2ccc(NC(=NC(=O)c3cccc(Cl)c3)NCCc3c[nH]cn3)cc2)cc1 [III-21, (Z/E)-N-((2-(1H-imidazol-4-yl)ethylamino)(4′-cyanobiphenyl-4-ylamino)methylene)-3-chlorobenzamide] | < 10 | <10 | >30 | 
CS(=O)(=O)c1ccccc1NC(=NC(=O)c1cccc(Cl)c1)NCCc1cnc[nH]1 [III-38, (Z/E)-N-((2-(1H-imidazol-5-yl)ethylamino)(2-(methylsulfonyl)phenylamino)methylene)-3-chlorobenzamide] | > 30 | >20 | >30 | 
O=C(N=C(NCCc1c[nH]cn1)Nc1cccc(-c2ccccc2)c1)c1ccc(Cl)c(Cl)c1 [VI-9, (Z/E)-N-((2-(1H-imidazol-4-yl)ethylamino)(biphenyl-3-ylamino)methylene)-3,4-dichlorobenzamide] | < 10 | <10 | <10 | 
O=C(N=C(NCCc1c[nH]cn1)Nc1ccc(-c2ccccc2)cc1)c1cccc(C(F)(F)F)c1 [II-4, (Z/E)-N-((2-(1H-imidazol-4-yl)ethylamino)(biphenyl-4-ylamino)methylene)-3-(trifluoromethyl)benzamide] | < 10 | >10 | >10 | 
O=C(N=C(NCCc1c[nH]cn1)Nc1cccc(Br)c1)c1cccc(Cl)c1 [III-3, (Z/E)-N-((2-(1H-imidazol-4-yl)ethylamino)(3-bromophenylamino)methylene)-3-chlorobenzamide] | > 10 | <10 | >10 | 
CCc1ccc(NC(=NC(=O)c2cccc(Cl)c2)NCCc2c[nH]cn2)cc1 [III-43, (Z/E)-N-((2-(1H-imidazol-4-yl)ethylamino)(4-ethylphenylamino)methylene)-3-chlorobenzamide] | > 10 | >10 | >20 | 
O=C(N=C(NCCc1c[nH]cn1)Nc1ccccc1C(F)(F)F)c1cccc(Cl)c1 [III-23, (Z/E)-N-((2-(1H-imidazol-4-yl)ethylamino)(2-(trifluoromethyl)phenylamino)methylene)-3-chlorobenzamide] | > 20 | >20 | >20 | 
O=C(N=C(NCCc1c[nH]cn1)Nc1ccc(-c2ccccc2)cc1)c1ccc(Cl)cc1 [II-1, (Z/E)-N-((2-(1H-imidazol-4-yl)ethylamino)(biphenyl-4-ylamino)methylene)-4-chlorobenzamide] | > 30 | >10 | >10 | 
O=C(/N=C(/NCCc1c[nH]cn1)Nc1ccc2[nH]ccc2c1)c1cccc(Cl)c1 [Compound V-2, (Z/E)-N-((2-(1H-imidazol-4-yl)ethylamino)(1H-indol-5-ylamino)methylene)-3-chlorobenzamide] |  | >10 | >20 | > 20
COc1ccc(-c2ccc(NC(=NC(=O)c3cccc(Cl)c3)NCCc3c[nH]cn3)cc2)cc1 [III-35, (Z/E)-N-((2-(1H-imidazol-4-yl)ethylamino)(4′-methoxybiphenyl-4-ylamino)methylene)-3-chlorobenzamide] | < 10 | <10 | >10 | 
O=C(/N=C(/NCCc1c[nH]cn1)Nc1cccc2[nH]ccc12)c1cccc(Cl)c1 [Compound V-1, (Z/E)-N-((2-(1H-imidazol-4-yl)ethylamino)(1H-indol-4-ylamino)methylene)-3-chlorobenzamide] |  | >10 | >10 | > 30
O=C(N=C(NCCc1c[nH]cn1)Nc1cccc(-c2ccccc2)c1)c1ccc(Br)cc1 [VI-11, (Z/E)-N-((2-(1H-imidazol-4-yl)ethylamino)(biphenyl-3-ylamino)methylene)-4-bromobenzamide] | < 10 | <10 | >10 | 
O=C(N=C(NCCc1c[nH]cn1)Nc1ccccc1Br)c1cccc(Cl)c1 [III-2, (Z/E)-N-((2-(1H-imidazol-4-yl)ethylamino)(2-bromophenylamino)methylene)-3-chlorobenzamide] | > 20 | <10 | >20 | 
O=C(N=C(NCCc1c[nH]cn1)Nc1ccc(-c2ccccc2)cc1)c1ccc([N+](=O)[O-])cc1 [II-13, (Z/E)-N-((2-(1H-imidazol-4-yl)ethylamino)(biphenyl-4-ylamino)methylene)-4-nitrobenzamide] | > 30 | >20 | >30 | 
O=C(N=C(NCCc1c[nH]cn1)Nc1ccc(-c2ccccc2)cc1)c1cccc(F)c1 [II-8, (Z/E)-N-((2-(1H-imidazol-4-yl)ethylamino)(biphenyl-4-ylamino)methylene)-3-fluorobenzamide] | < 10 | >10 | >10 | 
O=C(/N=C(/NCc1cccc2[nH]ccc12)Nc1ccc(-c2ccccc2)cc1)c1cccc(Cl)c1 [IV-9] |  | >20 | >30 | > 30
CN(C)S(=O)(=O)c1cccc(NC(=NC(=O)c2cccc(Cl)c2)NCCc2cnc[nH]2)c1 [III-40, (Z/E)-N-((2-(1H-imidazol-5-yl)ethylamino)(3-(N,N-dimethylsulfamoyl)phenylamino)methylene)-3-chlorobenzamide] | > 30 | >20 | >30 | 
O=C(N=C(NCCc1c[nH]cn1)Nc1cccc(-c2ccccc2)c1)c1cccc(Br)c1 [VI-10, (Z/E)-N-((2-(1H-imidazol-4-yl)ethylamino)(biphenyl-3-ylamino)methylene)-3-bromobenzamide] | < 10 | <10 | >10 | 
O=C(N=C(NCCc1c[nH]cn1)Nc1ccc(-c2ccc(Cl)cc2)cc1)c1cccc(Cl)c1 [III-29, (Z/E)-N-((2-(1H-imidazol-4-yl)ethylamino)(4′-chlorobiphenyl-4-ylamino)methylene)-3-chlorobenzamide] | < 10 | >10 | >10 | 
O=C(N=C(NCCc1c[nH]cn1)Nc1ccc(Br)cc1)c1cccc(Cl)c1 [III-20, (Z/E)-N-((2-(1H-imidazol-4-yl)ethylamino)(4-bromophenylamino)methylene)-3-chlorobenzamide] | > 10 | >10 | >10 | 
O=C(N=C(NCCc1c[nH]cn1)Nc1ccc(-c2ccccc2)cc1)c1cccc([N+](=O)[O-])c1 [II-12, (Z/E)-N-((2-(1H-imidazol-4-yl)ethylamino)(biphenyl-4-ylamino)methylene)-3-nitrobenzamide] | > 30 | >10 | >10 | 

Source: patent US8324258B2, “F1F0-ATPase inhibitors and related methods” (The Regents of the University of Michigan, priority 2007, dated 2012)
